From ChEMBL document CHEMBL1201862, “PubChem BioAssay data set” (2004) come the findings set out here.

Structures are written as SMILES.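 These data come from cells grown in 96-well plates and exposed to compound for 48 hours at five concentrations. The concentration for 50% growth inhibition is given as GI50.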 Active and inactive are the calls of the source. Rule as the data show it: active = GI50 up to about 1.1 µM and inactive = higher.

Test systems include NCI/ADR-RES; DU-145; HCT-116; MCF7; T47D; CAKI-1; OVCAR-3; HOP-92; SNB-75; BT-549; KM12; HCC 2998; NCI-H23; SK-MEL-28; OVCAR-5; RXF 393; UACC-62; HL-60; COLO 205; OVCAR-4.
What all share (assay): NCI tumour cell line growth inhibition, 48 h

On to `O=C(CC(=O)c1ccncc1)c1ccccc1`, for which the GI50 in the test with NCI/ADR-RES was 24.3 µM (inactive); with DU-145, > 100 µM (inactive); with HCT-116, 75.2 µM (inactive); with MCF7 it was > 77.6 µM (inactive); in the test with T47D, > 100 µM (inactive); with CAKI-1 it was > 100 µM (inactive). The GI50 in the test on OVCAR-3 is > 85.3 µM (inactive); in the test with HOP-92, > 87.1 µM (inactive); in the test with SNB-75, > 63.8 µM (inactive); in the test with BT-549 it was > 100 µM (inactive); in the test with KM12, > 100 µM (inactive); with HCC 2998, > 67.1 µM (inactive). For the same molecule, the GI50 with NCI-H23 is 80.7 µM (inactive); in the test on SK-MEL-28, > 100 µM (inactive); with OVCAR-5 it was > 100 µM (inactive); in the test on RXF 393, 81.3 µM (inactive); with UACC-62, 88.7 µM (inactive); with HL-60 it was 1.01 µM (active). The GI50 with COLO 205 and with OVCAR-4 was > 100 µM (inactive) throughout.
`CCCCCCCCC[C@@H]1C[C@@H]2CCC3C(C(=O)OCCCCNC(=O)OCc4ccccc4)=C(C)N=C(N1)N32` (stereo not given in full): the GI50 with NCI/ADR-RES was 2.62 µM (inactive); with DU-145, 4.76 µM (inactive); in the test on HCT-116, 3.11 µM (inactive); in the test on MCF7, 1.94 µM (inactive); with T47D it was 2.57 µM (inactive); in the test on CAKI-1, 3.62 µM (inactive). In addition, the GI50 with OVCAR-3 was 4.04 µM (inactive); with HOP-92, 2.78 µM (inactive); in the test on SNB-75, 4.59 µM (inactive); with BT-549, 3.67 µM (inactive); in the test with KM12 it was 3.13 µM (inactive); in the test on HCC 2998, 3.06 µM (inactive). In addition, the GI50 was 2.56 µM (inactive) in the test with NCI-H23; 3.61 µM (inactive) in the test on SK-MEL-28; 5.78 µM (inactive) in the test with OVCAR-5; 2.55 µM (inactive) with RXF 393; 3.44 µM (inactive) with UACC-62; 1.98 µM (inactive) with HL-60. Moreover, the GI50 in the test with COLO 205 was 1.62 µM (inactive); in the test with OVCAR-4, 3.97 µM (inactive).
For `NC(CSS(=O)(=O)c1ccccc1)C(=O)O` (stereo not given), the GI50 in the test with NCI/ADR-RES, in the test on DU-145, in the test with HCT-116, in the test with MCF7, in the test with T47D and in the test with CAKI-1 was > 10 µM (inactive) in each case. Further, the GI50 in the test on OVCAR-3, in the test with HOP-92, in the test on SNB-75, in the test on BT-549, in the test on KM12 and in the test with HCC 2998 was > 10 µM (inactive) each time. The GI50 in the test with NCI-H23, with SK-MEL-28, with OVCAR-5, with RXF 393, in the test with UACC-62 and in the test on HL-60 was > 10 µM (inactive) throughout. In addition, the GI50 in the test on COLO 205 and in the test on OVCAR-4 was > 10 µM (inactive) throughout.
With `CN(CCCN(C)CCc1ccc(Cl)c(Cl)c1)CCCN1CCCC1`, the GI50 is 6.08 µM (inactive) with NCI/ADR-RES; 8.71 µM (inactive) with DU-145; 1.73 µM (inactive) in the test with HCT-116; 1.78 µM (inactive) with MCF7; 2.34 µM (inactive) in the test with T47D; 2.37 µM (inactive) with CAKI-1. For the same molecule, the GI50 was 3.72 µM (inactive) in the test on OVCAR-3; 2.13 µM (inactive) with HOP-92; 2.72 µM (inactive) in the test on SNB-75; 6.03 µM (inactive) in the test on BT-549; 2.61 µM (inactive) in the test with KM12; 0.305 µM (active) in the test with HCC 2998. Besides, the GI50 in the test on NCI-H23 is 3.31 µM (inactive); in the test with SK-MEL-28, 1.5 µM (inactive); in the test on OVCAR-5, 3.3 µM (inactive); in the test on RXF 393, 1.61 µM (inactive); in the test with UACC-62, 1.93 µM (inactive); in the test on HL-60 it was 1.62 µM (inactive). Moreover, the GI50 in the test on COLO 205 is 2.28 µM (inactive); with OVCAR-4 it was 7.28 µM (inactive).
Take `CC[C@H](C)[C@H](NC(=O)N(CCC#N)CCN(CCN(C(=O)N[C@@H](Cc1ccccc1)C(=O)OC)c1ccccc1)C(=O)N[C@H](C(=O)OC)C(C)C)C(=O)OC`: the GI50 is 23.6 µM (inactive) in the test on NCI/ADR-RES; 20 µM (inactive) with DU-145; 19.2 µM (inactive) in the test with HCT-116; 27.5 µM (inactive) in the test on MCF7; 14.3 µM (inactive) with T47D; 19.8 µM (inactive) with CAKI-1. The GI50 was 17.4 µM (inactive) with OVCAR-3; 6.24 µM (inactive) with HOP-92; 19.9 µM (inactive) with SNB-75; 22.9 µM (inactive) in the test with BT-549; 20.9 µM (inactive) with KM12; 19 µM (inactive) in the test with HCC 2998. Further, the GI50 in the test on NCI-H23 is 19.9 µM (inactive); in the test on SK-MEL-28, 15 µM (inactive); in the test with OVCAR-5, 25 µM (inactive); with RXF 393, 14.2 µM (inactive); in the test with UACC-62 it was 11.5 µM (inactive); with HL-60 it was 0.879 µM (active). The GI50 was 24.2 µM (inactive) with COLO 205 and 22.4 µM (inactive) in the test with OVCAR-4.
Regarding `O=S(=O)(N1CCCCN(S(=O)(=O)C(F)(F)F)CCCN(S(=O)(=O)C(F)(F)F)CCCN(S(=O)(=O)C(F)(F)F)CCCCN(S(=O)(=O)C(F)(F)F)CCCN(S(=O)(=O)C(F)(F)F)CCC1)C(F)(F)F`, the GI50 in the test with NCI/ADR-RES is 53.2 µM (inactive); in the test with DU-145, > 100 µM (inactive); in the test on HCT-116 it was 87.1 µM (inactive); with MCF7, > 100 µM (inactive); in the test on T47D, 77.4 µM (inactive); in the test with CAKI-1 it was 37.2 µM (inactive). Further, the GI50 with OVCAR-3 was 38.4 µM (inactive); in the test with HOP-92, 31 µM (inactive); in the test on SNB-75, 37.9 µM (inactive); in the test with BT-549, 23.7 µM (inactive); with KM12, > 100 µM (inactive); in the test with HCC 2998, > 100 µM (inactive). Besides, the GI50 was 56.5 µM (inactive) with NCI-H23; > 100 µM (inactive) in the test on SK-MEL-28; > 100 µM (inactive) in the test on OVCAR-5; 28.6 µM (inactive) in the test with RXF 393; 64.6 µM (inactive) in the test with UACC-62; > 100 µM (inactive) in the test on HL-60. The GI50 in the test with COLO 205 and in the test on OVCAR-4 was > 100 µM (inactive) throughout.
